These are literature values, as cited in patent US7655374B2, “Fixing liquid, toner fixing method and apparatus, and image forming method and apparatus” (Ricoh Company, Ltd., priority 2005, dated 2010).

For the data set the following is noted: acute oral toxicity; species not given.

Where only a bound is given, the exact number is not on record here.

One may read the LD50 as the dose expected to kill half of the subjects tested. Turning to `CCCCCCCCCCCC(=O)OCC` [ethyl laurate], the LD50 was 3000 mg/kg. Turning to diethoxyethyl sebacate, the LD50 was greater than 5000 mg/kg. For the compound `CCCCCCCCCCCC` [n-dodecane], the 50% lethal dose (LD50) was greater than 5000 mg/kg. Consider `CC(C)COC(=O)CCCCC(=O)OCC(C)C` [diisobutyl adipate], for which the LD50 is 12300 mg/kg. On to `CCCCOC(=O)CCCCCCCCC(=O)OCCCC` [dibutyl sebacate], for which the LD50 is 14900 mg/kg.
